Entries after “also recorded” stand apart in the source; their conditions may differ. No end group written: not given here.
Tests used:
[1] = test system: cultured chick pituitary cells (GnRH1-induced CART mRNA); type: cell-based, chicken; details: H89 10 μM; GnRH1 10 nM, 24 h; N = 4
Experimental: (§1) As described in our recent studies ([Huang et al., 2014]; [Mo et al., 2015]), anterior pituitaries collected from 1-week-old chicks were sliced and digested by 0.25% trypsin at 37°C for 20 min. The dispersed pituitary cells were cultured at a density of 5 × 10^5 cells/well in Medium 199 supplemented with 15% fetal bovine serum in a Corning Cell BIND 48-well plates (Corning, Tewksbury, MA) at 37°C with 5% CO2. After 24-h culture, the medium was replaced with serum-free M199 medium and the cells were treated with chicken GnRH1/GnRH2 for the duration (12–48 h) or with increasing doses (0.1–100 nM) of each peptide. The total RNA was then extracted from cultured pituitary cells and the expression of CART and β-actin assayed by qPCR.
(§2) “ND” indicates no statistical difference between the two groups. Each data point represents mean ± SEM of four replicates (N = 4). ^**p < 0.01 vs. control; ^#p < 0.01 vs. GnRH1 treatment (in the absence of drug). […] Total ERK2 in cell lysates was also examined and used as internal controls. Note: only a single band for pERK2 or total ERK2 (42 kDa) was detected in cell lysate, because ERK1 gene is lost in chicken genome ([Gerilechaogetu et al., 2009]). The representative sets of independent experimental duplicates are shown here.
(§3) “ND” indicates no statistical difference between the two groups. Each data point represents mean ± SEM of four replicates (N = 4). ^**p < 0.01 vs. control. […] The β-actin in cell lysates were also examined and used as internal controls. The representative sets of independent experimental duplicates are shown here.

[2] = test system: rat GH3 cells (CART mRNA); set-up: method as in Barrett et al., 2001; details: ref Barrett et al., 2001; cited from earlier work
chicken GnRHR2 [3] = assay: three cell-based luciferase reporter assays, GnRHR2 (qualitative); details: GnRHR2, CHO cells, calcium, MAPK/ERK and cAMP/PKA reporters
Text: (§4) Based on the reported cDNA sequences of chicken GnRHR1 and GnRHR2 (accession nos.: NM_204653; NM_001012609) ([Sun et al., 2001]; [Shimizu and Bedecarrats, 2006]), gene-specific primers were used to amplify the open reading frame from adult chicken anterior pituitaries using high-fidelity Taq DNA polymerase (TOYOBO, Japan). The amplified PCR products were cloned into the pcDNA3.1 (+) expression vector (Invitrogen) and sequenced. According to our previously established methods, the signaling property of each receptor was examined in Chinese hamster ovary (CHO) cells using pGL3-NFAT-RE-luciferase ([Wang et al., 2012]), pGL4-SRE-luciferase ([Mo et al., 2015]), and pGL3-CRE-luciferase reporter systems ([Wang et al., 2007]).
(§5) Although two GnRH receptors (GnRHR1 and GnRHR2) have been identified in chickens ([Sun et al., 2001]; [Shimizu and Bedecarrats, 2006]; [Joseph et al., 2009]), their downstream signaling pathways have not been fully characterized.
(§6) Figure 5 Activation of chicken GnRHR1 or GnRHR2 expressed in CHO cells by chicken GnRH1 or GnRH2, monitored by pGL3-NFAT-RE-luciferase (A,D), pGL4-SRE-luciferase (B,E), and pGL3-CRE-luciferease (C,F) reporter systems. […] Each data point represents mean ± SEM of four replicates (N = 4).

CREB phosphorylation = CREB phosphorylation in cultured chick pituitary cells, Western blot; type: cell-based, chicken; details: 10 nM, 5 min, duplicates
Text: as §3

[4] = test system: intact anterior pituitaries (CART secretion); assay: CART peptide secretion from intact anterior pituitaries incubated in vitro, Western blot; type: cell-based, chicken; details: 4 h, intact chick pituitaries, N = 3
Experimental: As described in our recent study ([Huang et al., 2014]), the intact anterior pituitaries collected from 1-week-old male chicks were washed with PBS and placed on a 48-well plate (NUNC) supplemented with 400 μl serum-free Medium 199 (Invitrogen). After 1-h incubation at 37°C, the medium was replaced by 300 μl serum-free Medium 199 containing different concentrations of chicken GnRH1 or GnRH2 (0.1–100 nM) and incubated for 4 h. […] Parallel blotting of β-actin and CART in pituitary tissue lysates was also conducted.
The intracellular CART (iCART) and β-actin levels in the pituitary tissue lysate were also examined in parallel. […] Each data point represents mean ± SEM of three replicates (N = 3). ^*p < 0.05; ^**p < 0.01 vs. respective control. […] One representative set of Western blot is shown at the top of each graph.

ERK2 phosphorylation = ERK2 phosphorylation in cultured chick pituitary cells, Western blot; type: cell-based, chicken; details: 10 nM, 10 min, duplicates
Text: as §2

chicken GnRHR2 [5] = assay: pGL3-CRE-luciferase reporter, cAMP/PKA signaling pathway, CHO cells expressing chicken GnRHR2; type: cell-based; details: four replicates
Text: as §4, §5, §6

chicken GnRHR2 [6] = assay: pGL4-SRE-luciferase reporter, MAPK/ERK signaling pathway, CHO cells expressing chicken GnRHR2; type: cell-based; details: four replicates
Text: as §4, §5, §6

[7] = test system: cultured chick pituitary cells (CART mRNA); assay: CART mRNA expression in cultured chick pituitary cells, qPCR; type: cell-based, chicken; details: N = 4
Text: Chicken anterior pituitaries were collected either for cell culture, or for total RNA extraction. Total RNA was extracted from chicken tissues or cultured pituitary cells using RNAzol (Molecular Research Center, Cincinnati, OH) and reversely transcribed using M-MLV reverse transcriptase (TaKaRa). Reverse transcription (RT) samples were then used for quantitative real-time PCR (qPCR) assays to investigate the mRNA expression of target genes, as described in our recent studies ([Cai et al., 2015]; [Mo et al., 2015]).
as §1
The data were analyzed by the Student’s t-test (between two groups) or by one-way ANOVA followed by the Dunnett test in GraphPad Prism 5 (GraphPad Software, San Diego, CA). To validate our results, all experiments were repeated at least three times.
The mRNA levels of CART were normalized by β-actin and expressed as the percentage of respective controls. Each value represents the mean ± SEM of four replicates (N = 4). ^*p < 0.05, ^**p < 0.01 vs. respective control. (E) RT-PCR detection of GnRHR2 expression in cultured chick pituitary cells (three replicates). RT was performed in the presence (+) or absence (−) of reverse transcriptase. Parallel PCR of β-actin was performed to serve as an internal control.

chicken GnRHR1 [8] = assay: pGL4-SRE-luciferase reporter, MAPK/ERK signaling pathway, CHO cells expressing chicken GnRHR1; type: cell-based; details: four replicates
Text: as §4, §5, §6

chicks (plasma CART) = assay: plasma CART levels after intraperitoneal administration in chicks, ELISA; type: in vivo, chicken; details: 5 μg/chick, 30 min, male chicks
Experimental: The levels of CART peptide in chicken plasma was then determined by competitive ELISA assay.
Each data point represents mean ± SEM of seven 19-day-old male individuals (N = 7). ^*p < 0.05 vs. saline (control).

chicken GnRHR2 [9] = assay: pGL3-NFAT-RE-luciferase reporter, calcium signaling pathway, CHO cells expressing chicken GnRHR2; type: cell-based; details: four replicates
Text: as §4, §5, §6

chicken GnRHR1 [10] = assay: three cell-based luciferase reporter assays, GnRHR1 (qualitative); details: GnRHR1, CHO cells, calcium, MAPK/ERK and cAMP/PKA reporters
Text: as §4, §5, §6

chicken GnRHR1 [11] = assay: pGL3-NFAT-RE-luciferase reporter, calcium signaling pathway, CHO cells expressing chicken GnRHR1; type: cell-based; details: four replicates
Text: as §4, §5, §6

chicken GnRHR1 [12] = assay: pGL3-CRE-luciferase reporter, cAMP/PKA signaling pathway, CHO cells expressing chicken GnRHR1; type: cell-based; details: four replicates
Text: as §4, §5, §6

[13] = test system: ovine pars tuberalis cells (CART mRNA); set-up: method as in Barrett et al., 2001; details: ref Barrett et al., 2001; cited from earlier work
rats (plasma CART) = test system: rats (plasma CART); set-up: method as in Stanley et al., 2004; details: intraperitoneal administration, ref Stanley et al., 2004; cited from earlier work
[14] = test system: cultured chick pituitary cells (CART mRNA); set-up: method as in Mo et al., 2015; details: chickens; ref Mo et al., 2015; cited from earlier work
[15] = test system: rat pituitary (CART secretion); set-up: method as in Kappeler et al., 2006; details: rat pituitary upon perfusion; ref Kappeler et al., 2006; cited from earlier work

## O=S(=O)(NCCNC/C=C/c1ccc(Br)cc1)c1cccc2cnccc12 [H89]
[1]
  effect on GnRH1-induced CART mRNA expression: could abolish GnRH1-induced CART expression
[2]
  effect on AC activator- or cAMP analog-stimulated CART mRNA levels: abolished

## GnRH1: chicken gonadotropin-releasing hormone 1, synthesized using solid-phase Fmoc chemistry; an ortholog of mammalian GnRH (QHWSYGLQPG; ends and bridges not checked; UniProt P37042 24-33, looked up)
Chicken GnRHR2 [3]
  activation of GnRHR2 (luciferase activity): stimulate the luciferase activities dose-dependently; also recorded: potently activated by both GnRH1 and GnRH2
CREB phosphorylation
  CREB phosphorylation: could enhance CREB phosphorylation
[4]; 0–100 nM
  secretion of mature CART peptide: potently stimulated the secretion of mature CART peptide
[4]
  minimal effective concentration, CART secretion: 1 nM
ERK2 phosphorylation
  ERK2 phosphorylation: could enhance ERK2 phosphorylation
Chicken GnRHR2 [5]
  EC50: 0.00215 µM
Chicken GnRHR2 [6]
  EC50: 0.0299 µM
[7]; 0–100 nM, 48 h, qPCR
  effect on CART mRNA expression, dose dependence: stimulate CART expression dose-dependently
[7]; 10 nM, qPCR
  treatment time of maximal effect on CART mRNA expression: 48 h
[7]; 10 nM, time course (12–48 h), qPCR
  effect on CART mRNA expression: induce CART expression in a time-dependent manner
[7]; 48 h, qPCR
  minimal effective dose, CART mRNA expression: 1 nM
Chicken GnRHR1 [8]
  EC50: 0.27 µM
Chicks (plasma CART); N = 7, p < 0.05
  increase in plasma CART levels vs saline: two-fold
Chicks (plasma CART); N = 7, saline control 1.3 ng/ml, p < 0.05
  plasma CART level: 2.7 ng/mL
Chicken GnRHR2 [9]
  EC50: 0.00154 µM
Chicken GnRHR1 [10]
  activation of GnRHR1 (luciferase activity): stimulate the luciferase activities dose-dependently
Chicken GnRHR1 [11]
  EC50: 0.0113 µM
Chicken GnRHR1 [12]
  EC50: 0.0693 µM

## CCCCCCCCCCCCCC(=O)O[C@@H]1[C@@H](C)[C@@]2(O)[C@@H](C=C(CO)C[C@]3(O)C(=O)C(C)=C[C@@H]23)[C@@H]2C(C)(C)[C@]12OC(C)=O [PMA, phorbol-12-myristate-13-acetate, reference compound]
[7]; PMA 100 nM, 48 h
  effect on CART mRNA expression: could mimic GnRH1 action
[13]
  CART mRNA expression: enhances CART mRNA expression

## CRH: corticotropin-releasing hormone, hypothalamic factor (literature results only)
Rats (plasma CART)
  plasma CART levels: increase plasma CART levels in rats
[14]
  potency as stimulator of pituitary CART secretion and expression: potent stimulator of pituitary CART secretion and expression

## GnRH: GnRH perfused on rat pituitary in a previous study (form not specified) (QHWSYGLRPG; ends and bridges not checked; UniProt P07490 24-33, looked up)
[15]
  CART secretion: CART secretion is induced
